Assay results published in US8476197B2, “Aminopropenoates as fungicides” (priority 2009, dated 2013).
Like-named read-outs stand apart in the source and are kept apart here. Marks after values point to notes of the source that are not given here.

| SMILES | Log P (pH 2.7) | Log P (pH 2.3) | Log P (pH 7.5) |
| --- | --- | --- | --- |
| CCOC(=O)C(C#N)=C(NC(C)C(C)C)c1ccnc(Br)c1Cl (stereo not drawn) [Compound 1209] | 3.94^[a] |  |  |
| CCNC(=O)C(C#N)=C(NC(C)C(C)C)c1ccnc(Br)c1Cl (stereo not drawn) [Compound 1210] | 3.6^[a] |  |  |
| CCOC(=O)C(C#N)=C(NC(C)C(C)C)c1ccnc(C)c1Cl (stereo not drawn) [Compound 1211] | 3.51^[a] |  |  |
| CCOC(=O)C(C#N)=C(NC(C)c1nccs1)c1cn(C)nc1C (stereo not drawn) [Compound 1212] | 2.11^[a] |  |  |
| CCOC(=O)C(C#N)=C(NC(C)c1nccs1)c1cn(C)nc1CC (stereo not drawn) [Compound 1213] | 2.35^[a] |  |  |
| CCOC(=O)C(C#N)=C(NC(C)c1nccs1)c1cn(C)nc1C(C)C (stereo not drawn) [Compound 1214] | 2.62^[a] |  |  |
| CCOC(=O)C(C#N)=C(NC(C)(C)c1ccc(Cl)cc1)c1cn(C)nc1C(F)F [Compound 1215] | 3.71^[a] |  |  |
| CCOC(=O)C(C#N)=C(Nc1ccccc1Cl)c1cn(C)nc1C(F)F [Compound 1216] | 3.15^[a] |  |  |
| CCOC(=O)C(C#N)=C(Nc1ccc(C#N)cc1)c1cn(C)nc1C(F)F [Compound 1217] | 2.64^[a] |  |  |
| CCOC(=O)C(C#N)=C(NC(C#N)c1ccccc1Br)c1cn(C)nc1C(F)F (stereo not drawn) [Compound 1218] | 3.13^[a] |  |  |
| CCOC(=O)C(C#N)=C(NC(C#N)c1cccc(Cl)c1Cl)c1cn(C)nc1C(F)F (stereo not drawn) [Compound 1219] | 3.44^[a] |  |  |
| C#CCC(C#N)NC(=C(C#N)C(=O)OCC)c1cn(C)nc1C(F)F (stereo not drawn) [Compound 1220] | 2.33^[a] |  |  |
| CCOC(=O)C(C#N)=C(NC(C#N)Cc1ccccc1)c1cn(C)nc1C(F)F (stereo not drawn) [Compound 1221] | 2.98^[a] |  |  |
| CCOC(=O)C(C#N)=C(NC(c1ccc(Cl)cc1)C(F)(F)F)c1cn(C)nc1C(F)F (stereo not drawn) [Compound 1222] | 4.01^[a] |  |  |
| CCOC(=O)C(C#N)=C(NC(Cc1ncccc1C)C(F)(F)F)c1cn(C)nc1C(F)F (stereo not drawn) [Compound 1223] | 2.94^[a] |  |  |
| CCOC(=O)C(C#N)=C(NC(c1ccccc1)C(F)(F)F)c1cn(C)nc1C(F)F (stereo not drawn) [Compound 1224] | 3.55^[a] |  |  |
| CCOC(=O)C(C#N)=C(NC(C)c1cccc(OC)c1)c1cn(C)nc1C(F)F (stereo not drawn) [Compound 1225] | 3.21^[a] |  |  |
| CCOC(=O)C(C#N)=C(Nc1ccccc1C(=O)C1CC1)c1cn(C)nc1C(F)F [Compound 1226] | 3^[a] |  |  |
| CCOC(=O)C(C#N)=C(Nc1ccccc1OC(F)(F)F)c1cn(C)nc1C(F)F [Compound 1227] | 3.42^[a] |  |  |
| CCOC(=O)C(C#N)=C(Nc1ccccc1SCC)c1cn(C)nc1C(F)F [Compound 1228] | 3.46^[a] |  |  |
| CCOC(=O)C(C#N)=C(NC(C)(C)c1ccc(OC)cc1)c1cn(C)nc1C(F)F [Compound 1229] | 3.35^[a] |  |  |

| SMILES | Log P (pH 2.7) | Log P (pH 2.3) | Log P (pH 7.5) |
| --- | --- | --- | --- |
| CCOC(=O)C(C#N)=C(NC(C#N)c1ccccc1)c1cn(C)nc1C(F)F (stereo not drawn) [Compound 1230] | 2.94^[a] |  |  |
| CCOC(=O)C(C#N)=C(NC(C#N)c1ccc(Cl)cc1Cl)c1cn(C)nc1C(F)F (stereo not drawn) [Compound 1231] | 3.55^[a] |  |  |
| CCOC(=O)C(C#N)=C(NC(C#N)c1cnn(-c2ccccc2)c1)c1cn(C)nc1C(F)F (stereo not drawn) [Compound 1232] | 3.15^[a] |  |  |
| CCOC(=O)C(C#N)=C(NC(C)COCc1ccc(C(F)(F)F)cc1)c1cn(C)nc1C(F)F (stereo not drawn) [Compound 1233] | 3.99^[a] |  |  |
| CCOC(=O)C(C#N)=C(NC(C)CSc1ccc(Cl)cc1)c1cn(C)nc1C(F)F (stereo not drawn) [Compound 1234] | 3.87^[a] |  |  |
| CCOC(=O)C(C#N)=C(NC(C)(C)C#Cc1ccc(C#N)cc1)c1cn(C)nc1C(F)F [Compound 1238] | 3.69^[a] |  |  |
| CON(C)C(=O)C(C#N)=C(NC(C)C(C)C)c1cccnc1Cl (stereo not drawn) [Compound 1246] |  | 2.68 | 2.67 |
| CCNC(=O)C(C#N)=C(NC(C)C(C)C)c1ccnc(C)c1Cl (stereo not drawn) [Compound 1249] | 3.08^[a] |  |  |
| CCOC(=O)C(C#N)=C(NCC(N)=O)c1cn(C)nc1C(F)F [Compound 1255] | 2.1^[a] |  |  |
| CCOC(=O)C(C#N)=C(Nc1ccccc1Cl)c1cccnc1Cl [Compound 1263] | 3.35^[a] |  |  |
| CCOC(=O)C(C#N)=C(Nc1ccc(N(C)C)cc1)c1cccnc1Cl [Compound 1264] | 3.17^[a] |  |  |
| CCOC(=O)C(C#N)=C(Nc1ccc(C#N)cc1)c1cccnc1Cl [Compound 1265] | 2.73^[a] |  |  |
| CCOC(=O)C(C#N)=C(Nc1cccc(SC)c1)c1cccnc1Cl [Compound 1266] | 3.42^[a] |  |  |
| CCOC(=O)C(C#N)=C(NC(C)(C)C#Cc1ccc(C)cc1)c1cccnc1Cl [Compound 1268] | 4.41^[a] |  |  |
| CCOC(=O)C(C#N)=C(Nc1ccc2ncsc2c1)c1cccnc1Cl [Compound 1269] | 2.54^[a] |  |  |
| CCOC(=O)C(C#N)=C(NC(C)(C)C=C(Cl)Cl)c1cccnc1Cl [Compound 1271] | 3.55^[a] |  |  |
| CCOC(=O)C(C#N)=C(NC(C)(C)C#Cc1ccc(C#N)cc1)c1cccnc1Cl [Compound 1272] | 3.67^[a] |  |  |
| CCOC(=O)C(C#N)=C(NC(C)(C)C(C)(C)C)c1cccnc1Cl [Compound 1273] | 3.8^[a] |  |  |
| CCOC(=O)C(C#N)=C(NC(C)(C)C(=O)OC)c1cccnc1Cl [Compound 1274] | 2.66^[a] |  |  |
| CC#CC1(NC(=C(C#N)C(=O)OCC)c2cccnc2Cl)CCCC1 [Compound 1275] | 3.69^[a] |  |  |
| CCOC(=O)C(C#N)=C(NC(C)c1nccs1)c1ccnc(Cl)c1Cl (stereo not drawn) [Compound 1276] | 2.96 |  | 2.91 |

| SMILES | Log P (pH 2.7) | Log P (pH 2.3) | Log P (pH 7.5) |
| --- | --- | --- | --- |
| CCNC(=O)C(C#N)=C(NC(C)C(C)C)c1cn(C)nc1C(F)F (stereo not drawn) [Compound 1278] | 2.71^[a] |  |  |
| CC(NC(=C(C#N)C(=O)OC1COC1)c1cccnc1Cl)C1CC1 (stereo not drawn) [Compound 1281] |  |  | 2.31 |
| CCN(C)C(=O)C(C#N)=C(NC(C)C(C)C)c1cccnc1Cl (stereo not drawn) [Compound 1282] |  | 2.91 | 2.9 |
| CC(C)C(C)NC(=O)C(C#N)=C(NC(C)C(C)C)c1cccnc1Cl (stereo not drawn) [Compound 1283] |  | 4.02^[c]; 4.02^[b] | 4.02^[c]; 4.02^[b] |
| CC(C)C(C)NC(=C(C#N)C(=O)OC1CCC1)c1cccnc1Cl (stereo not drawn) [Compound 1284] |  | 3.79^[c]; 3.79^[b] | 3.79^[c]; 3.79^[b] |
| CCOC(=O)C(C#N)=C(NC(C)c1nccs1)c1ccnc(C)c1Cl (stereo not drawn) [Compound 1285] | 2.57^[a] |  |  |
| CC(C)C(C)NC(=C(C#N)C(=O)N(C)C)c1cn(C)nc1C(F)F (stereo not drawn) [Compound 1286] | 2.45^[a] |  |  |
| CCNC(=O)C(C#N)=C(NC(C)c1nccs1)c1ccnc(Cl)c1Cl (stereo not drawn) [Compound 1289] | 2.57^[a] |  |  |
| CCOC(=O)C(C#N)=C(NC(C)c1nccs1)c1ccnc(Br)c1Cl (stereo not drawn) [Compound 1290] | 3.02^[a] |  |  |
| CC(NC(=C(C#N)C(=O)N(C)C)c1cn(C)nc1C(F)F)c1ccccn1 (stereo not drawn) [Compound 1295] | 1.59^[a] |  |  |
| CC(NC(=C(C#N)C(=O)N(C)C)c1cn(C)nc1C(F)F)c1nccs1 (stereo not drawn) [Compound 1296] | 1.81^[a] |  |  |
| C#CCNC(=O)C(C#N)=C(NC(C)c1nccs1)c1cn(C)nc1C(F)F (stereo not drawn) [Compound 1297] | 2.04^[a] |  |  |
| CC(C)[C@H](C)N/C(=C(/C#N)C(=O)NC1COC1)c1cn(C)nc1C(F)F [Compound 1298] | 1.84^[a] |  |  |
| CC(C)C(C)NC(=C(C#N)C(=O)NCCC#N)c1cn(C)nc1C(F)F (stereo not drawn) [Compound 1299] | 2.44^[a] |  |  |
| CCOC(=O)C(C#N)=C(NC(C)c1ccccn1)c1cnn(C)c1C(F)F (stereo not drawn) [Compound 1300] | 2.41^[a] |  |  |
| CCOC(=O)C(C#N)=C(NC(C)C(C)C)c1cnn(C)c1C(F)F (stereo not drawn) [Compound 1301] | 3.23^[a] |  |  |
| CCOC(=O)C(C#N)=C(NC(C)c1nccs1)c1cnn(C)c1C(F)F (stereo not drawn) [Compound 1302] | 2.46^[a] |  |  |
| CCOC(=O)C(C#N)=C(NC(C)C1CC1)c1cnn(C)c1C(F)F (stereo not drawn) [Compound 1303] | 2.98^[a] |  |  |
| CCOC(=O)C(C#N)=C(NC1CCC1)c1cnn(C)c1C(F)F [Compound 1304] | 2.84^[a] |  |  |
| CCNC(=O)C(C#N)=C(NC(C)c1nccs1)c1ccnc(Br)c1Cl (stereo not drawn) [Compound 1305] | 2.62^[a] |  |  |
| CCNC(=O)C(C#N)=C(NC(C)c1nccs1)c1ccnc(C)c1Cl (stereo not drawn) [Compound 1306] | 2.18^[a] |  |  |

| SMILES | Log P (pH 2.7) | Log P (pH 2.3) | Log P (pH 7.5) |
| --- | --- | --- | --- |
| CCNC(=O)C(C#N)=C(NC(C)c1nccs1)c1cnn(C)c1C(F)F (stereo not drawn) [Compound 1308] | 2.11^[a] |  |  |
| CCNC(=O)C(C#N)=C(NC(C)C1CC1)c1cnn(C)c1C(F)F (stereo not drawn) [Compound 1309] | 2.64^[a] |  |  |
| CCOC(=O)C(C#N)=C(Nc1cnc2sccc2c1)c1cccnc1Cl [Compound 1310] |  | 2.56 | 2.49 |
| CCOC(=O)C(C#N)=C(NC(C)C(C)C)c1ccnc(Cl)c1F (stereo not drawn) [Compound 1311] | 3.81^[a] |  |  |
| CCOC(=O)C(C#N)=C(NC(C)c1ccccn1)c1ccnc(Cl)c1F (stereo not drawn) [Compound 1312] | 3^[a] |  |  |
| CCOC(=O)C(C#N)=C(NC(C)c1nccs1)c1ccnc(Cl)c1F (stereo not drawn) [Compound 1313] | 2.96^[a] |  |  |
| CCOC(=O)C(C#N)=C(NC(C)C(C)C)c1ccnc(Br)c1F (stereo not drawn) [Compound 1315] | 3.87^[a] |  |  |
| CCNC(=O)C(C#N)=C(NC(C)C(C)C)c1ccnc(Cl)c1F (stereo not drawn) [Compound 1316] | 3.44^[a] |  |  |
| CCOC(=O)C(C#N)=C(NC(C)C(C)C)c1ccnc(C)c1F (stereo not drawn) [Compound 1317] | 3.31^[a] |  |  |
| CCOC(=O)C(C#N)=C(NC(C)C1CC1)c1ccnc(Cl)c1F (stereo not drawn) [Compound 1318] | 3.5^[a] |  |  |
| CCOC(=O)C(C#N)=C(NC(C)c1nccs1)c1ccnc(C)c1F (stereo not drawn) [Compound 1319] | 2.48^[a] |  |  |
| CCOC(=O)C(C#N)=C(NC(C)c1ccccn1)c1ccnc(C)c1F (stereo not drawn) [Compound 1320] | 2.5^[a] |  |  |
| CCOC(=O)C(C#N)=C(NC1CCC1)c1ccnc(Cl)c1F [Compound 1321] | 3.39^[a] |  |  |
| CCNC(=O)C(C#N)=C(NC(C)C(C)C)c1ccnc(Br)c1F (stereo not drawn) [Compound 1323] | 3.46^[a] |  |  |
| CCOC(=O)C(C#N)=C(NC(C)C(=O)NC)c1ccnc(Cl)c1F (stereo not drawn) [Compound 1324] | 2.15^[a] |  |  |
| CC#CC(C)NC(=C(C#N)C(=O)OCC)c1ccnc(Cl)c1F (stereo not drawn) [Compound 1325] | 3.39^[a] |  |  |
| CC(C)C(C)NC(=C(C#N)C(=O)N1CCOCC1)c1cn(C)nc1C(F)F (stereo not drawn) [Compound 1326] | 2.43^[a] |  |  |
| CC(NC(=C(C#N)C(=O)N1CCOCC1)c1cn(C)nc1C(F)F)c1nccs1 (stereo not drawn) [Compound 1327] | 1.79^[a] |  |  |
